Where “and” joins values, the source holds several entries; their conditions need not be identical. Equal entries are not always repeated.
Experiments:
PDE10A [1] = conditions: unlabeled compounds; cited from earlier work
PDE10A [2] = biological target: PDE10A (Rattus norvegicus, UniProt Q9QYJ6)
PDE10A [3] = conditions: NHP brain
[4] = In vivo biodistribution and regional brain uptake in rats; conditions: for Biodistribution, blood / Biodistribution, cerebellum / Biodistribution, fat / Biodistribution, heart / Biodistribution, kidney / Biodistribution, liver / Biodistribution, lung / Biodistribution, muscle / Biodistribution, striatum / Biodistribution, total brain: male SD rats, i.v.
[5] = rats pretreated with MP-10 2.0 mg/kg 5 min prior to tracer, 30 min p.i.

Chain of PDE10A (Rattus norvegicus, UniProt Q9QYJ6) (Q9QYJ6 whole entry): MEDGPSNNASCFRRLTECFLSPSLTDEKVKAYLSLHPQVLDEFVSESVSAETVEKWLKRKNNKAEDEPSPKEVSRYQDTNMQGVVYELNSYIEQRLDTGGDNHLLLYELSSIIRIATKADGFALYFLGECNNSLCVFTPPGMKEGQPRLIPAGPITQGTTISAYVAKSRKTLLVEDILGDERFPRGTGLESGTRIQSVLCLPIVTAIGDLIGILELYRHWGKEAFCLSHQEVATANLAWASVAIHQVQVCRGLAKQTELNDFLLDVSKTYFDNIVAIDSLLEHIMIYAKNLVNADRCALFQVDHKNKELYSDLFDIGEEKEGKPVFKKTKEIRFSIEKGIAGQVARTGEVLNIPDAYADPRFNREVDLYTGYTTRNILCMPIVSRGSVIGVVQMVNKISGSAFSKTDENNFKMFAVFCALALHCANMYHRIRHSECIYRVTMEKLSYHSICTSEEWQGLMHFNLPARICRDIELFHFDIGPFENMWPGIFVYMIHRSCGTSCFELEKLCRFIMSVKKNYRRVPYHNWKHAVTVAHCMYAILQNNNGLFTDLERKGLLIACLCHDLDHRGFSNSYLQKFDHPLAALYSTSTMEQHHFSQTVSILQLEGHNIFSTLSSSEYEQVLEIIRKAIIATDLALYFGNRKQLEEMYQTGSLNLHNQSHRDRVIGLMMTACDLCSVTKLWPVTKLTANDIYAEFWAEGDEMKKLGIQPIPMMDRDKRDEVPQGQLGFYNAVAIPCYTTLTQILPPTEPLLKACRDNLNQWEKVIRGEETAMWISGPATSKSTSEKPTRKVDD

COc1cc2ccccc2nc1COc1ccc(-c2nn(C)cc2-c2ccncc2)cc1 [Compound 1]
IC50 (PDE10A [1]): 0.4 ± 0.02 nM

Cn1cc(-c2ccncc2)c(-c2ccc(OCc3cc(O[11CH3])c4ccccc4n3)cc2)n1 [[^11C]2, 4-(methoxy-^11C)-2-((4-(1-methyl-4-(pyridin-4-yl)-1H-pyrazol-3-yl)phenoxy)methyl)quinoline]
Distribution, blood, MP-10 block (PDE10A [2]; [5]): 0.343 ± 0.007 %ID/gram | Distribution, cerebellum, MP-10 block (PDE10A [2]; [5]): 0.112 ± 0.011 %ID/gram | Distribution, fat, MP-10 block (PDE10A [2]; [5]): 0.697 ± 0.219 %ID/gram | Distribution, heart, MP-10 block (PDE10A [2]; [5]): 0.310 ± 0.040 %ID/gram | Distribution, kidney, MP-10 block (PDE10A [2]; [5]): 1.072 ± 0.069 %ID/gram | Distribution, liver, MP-10 block (PDE10A [2]; [5]): 4.723 ± 0.489 %ID/gram | Distribution, lung, MP-10 block (PDE10A [2]; [5]): 0.362 ± 0.021 %ID/gram | Distribution, muscle, MP-10 block (PDE10A [2]; [5]): 0.224 ± 0.012 %ID/gram | Distribution, striatum, MP-10 block (PDE10A [2]; [5]): 0.175 ± 0.022 %ID/gram | Distribution, total brain, MP-10 block (PDE10A [2]; [5]): 0.114 ± 0.007 %ID/gram | striatal binding after blocking dose of MP-10 (PDE10A [2]; rats, MP-10 2 mg/kg i.v. 5 min prior to tracer, p < 0.05): significant reduction | blood–brain-barrier penetration (PDE10A [3]): readily penetrate the blood–brain-barrier | striatum: cerebellum ratio ([4]; SD rats, 60 min p.i.): 2.5 fold | Biodistribution, blood ([4]; 5 min p.i.): 0.268 ± 0.053 %ID/gram | Biodistribution, cerebellum ([4]; 5 min p.i.): 0.215 ± 0.031 %ID/gram | Biodistribution, fat ([4]; 5 min p.i.): 0.242 ± 0.065 %ID/gram | Biodistribution, heart ([4]; 5 min p.i.): 0.464 ± 0.023 %ID/gram | Biodistribution, kidney ([4]; 5 min p.i.): 2.340 ± 0.295 %ID/gram | Biodistribution, liver ([4]; 5 min p.i.): 7.080 ± 0.435 %ID/gram | Biodistribution, lung ([4]; 5 min p.i.): 0.890 ± 0.206 %ID/gram | Biodistribution, muscle ([4]; 5 min p.i.): 0.258 ± 0.035 %ID/gram | Biodistribution, striatum ([4]; 5 min p.i.): 0.352 ± 0.052 ^a %ID/gram | Biodistribution, total brain ([4]; 5 min p.i.): 0.210 ± 0.035 %ID/gram | Biodistribution, blood ([4]; 30 min p.i. (control)): 0.192 ± 0.075 %ID/gram | Biodistribution, cerebellum ([4]; 30 min p.i. (control)): 0.066 ± 0.023 %ID/gram | Biodistribution, fat ([4]; 30 min p.i. (control)): 0.371 ± 0.091 %ID/gram | Biodistribution, heart ([4]; 30 min p.i. (control)): 0.187 ± 0.042 %ID/gram | Biodistribution, kidney ([4]; 30 min p.i. (control)): 1.294 ± 0.268 %ID/gram | Biodistribution, liver ([4]; 30 min p.i. (control)): 10.085 ± 1.972 %ID/gram | Biodistribution, lung ([4]; 30 min p.i. (control)): 0.233 ± 0.045 %ID/gram | Biodistribution, muscle ([4]; 30 min p.i. (control)): 0.133 ± 0.035 %ID/gram | Biodistribution, striatum ([4]; 30 min p.i. (control)): 0.230 ± 0.030 ^a %ID/gram and 0.230 ± 0.030 %ID/gram | Biodistribution, total brain ([4]; 30 min p.i. (control)): 0.087 ± 0.016 %ID/gram | Biodistribution, blood ([4]; 60 min p.i.): 0.152 ± 0.030 %ID/gram | Biodistribution, cerebellum ([4]; 60 min p.i.): 0.046 ± 0.014 %ID/gram | Biodistribution, fat ([4]; 60 min p.i.): 0.278 ± 0.040 %ID/gram | Biodistribution, heart ([4]; 60 min p.i.): 0.121 ± 0.025 %ID/gram | Biodistribution, kidney ([4]; 60 min p.i.): 0.758 ± 0.112 %ID/gram | Biodistribution, lung ([4]; 60 min p.i.): 0.163 ± 0.027 %ID/gram | Biodistribution, muscle ([4]; 60 min p.i.): 0.084 ± 0.013 %ID/gram | Biodistribution, striatum ([4]; 60 min p.i.): 0.201 ± 0.037 ^a %ID/gram | Biodistribution, total brain ([4]; 60 min p.i.): 0.057 ± 0.008 %ID/gram

COc1ccc2nc(COc3ccc(-c4nn(C)cc4-c4ccncc4)cc3)ccc2c1 [Compound 3]
IC50 (PDE10A [1]): 1.82 ± 0.25 nM

From publication PMC4054929 (Bioorganic & medicinal chemistry, 2014)
